In test [1] the test system is AR230 cells. Nature of the test: Phenotypic screening / cytotoxicity in CML cell line AR230. In kind it is cell-based. The note with it: read-out: IC50 AR230.
Test [2] has as its system AR230^R cells. Nature of the test: Phenotypic screening / cytotoxicity in TKI-resistant CML cell line AR230^R. In kind it is cell-based. To be noted: for IC50: read-out: IC50 AR230^R; for Fold Difference: Table 3, AR230 vs AR230^R.

Read-outs that look alike come from different tables or passages of the source. Some results are limits rather than exact numbers.

With `CC(C)(C)c1ccc(CN(C(=O)CN(C2CC2)S(=O)(=O)c2ccc(F)cc2)c2ccc(C(=O)O)cc2)cc1` [AES1-094, 4-(N-(4-(tert-butyl)benzyl)-2-((N-cyclopropyl-4-fluorophenyl)sulfonamido)acetamido)benzoic acid], the IC50 in test [1] (Table 4) is > 32 µM; in test [2] (Table 4), 10.6 µM.
As for `O=C(O)c1ccc(N(Cc2ccc(C3CCCC3)cc2)C(=O)CN(C2CC2)S(=O)(=O)c2ccccn2)cc1` [RG1-085, 4-(N-(4-Cyclopentylbenzyl)-2-(N-cyclopropylpyridine-2-sulfonamido)acetamido)benzoic acid], the IC50 in test [1] and in test [2] was > 32 µM throughout.
As for `O=C(O)c1ccc(N(Cc2ccc(C3CCCC3)cc2)C(=O)CN(C2CC2)S(=O)(=O)c2c(F)c(F)c(F)c(F)c2F)cc1` [DR-3-093, 4-(N-(4-Cyclopentylbenzyl)-2-((N-cyclopropyl-2,3,4,5,6-pentafluorophenyl)sulfonamido)acetamido)benzoic acid], the IC50 worked out at 3.3 µM in test [1] (Table 3) and 1.2 µM in test [2] (Table 3). Further, in test [2], the “Fold Difference” value turned out to be 2.75.
As to `O=C(O)c1ccc(N(Cc2ccc(C3CCCC3)cc2)C(=O)CN(C2CC2)S(=O)(=O)c2cccnc2)cc1` [RG1-066, 4-(N-(4-Cyclopentylbenzyl)-2-(N-cyclopropylpyridine-3-sulfonamido)acetamido)benzoic acid], the IC50 in test [1] and in test [2] was > 32 µM each time.
As for `Cc1c(F)c(F)c(S(=O)(=O)N(CC(=O)N(Cc2ccc(C3CCCC3)cc2)c2ccc(C(=O)O)cc2)C2CC2)c(F)c1F` [AM1-030, 4-(N-(4-Cyclopentylbenzyl)-2-((N-cyclopropyl-2,3,5,6-tetrafluoro-4-methylphenyl)sulfonamido)acetamido)benzoic acid], the IC50 is > 32 µM in test [1] (Table 4) and 18.6 µM in test [2] (Table 4).
The matching figures for `O=C(O)c1ccc(N(Cc2ccc(C3CCCC3)cc2)C(=O)CN(C2CC2)S(=O)(=O)c2c(F)c(F)c(Br)c(F)c2F)cc1` [AM1-077, 4-(N-(4-Cyclopentylbenzyl)-2-((N-cyclopropyl-2,3,5,6-tetrafluoro-4-bromophenyl)sulfonamido)acetamido)benzoic acid]: 25.1 µM and 20.3 µM.
`O=C(O)c1ccc(N(Cc2ccc(Cl)cc2)C(=O)CN(C2CC2)S(=O)(=O)c2c(F)c(F)c(F)c(F)c2F)cc1` [DR-4-003, 4-(N-(4-Chlorobenzyl)-2-((N-cyclopropyl-2,3,4,5,6-pentafluorophenyl)sulfonamido)acetamido)benzoic acid]: the IC50 in test [1] (Table 3) was determined as 4.1 µM; in test [2] (Table 3) it was 1.7 µM. Moreover, the “Fold Difference” value in test [2] was 2.41.
As for `O=C(O)c1ccc(N(Cc2ccc(C3CCCC3)cc2)C(=O)CN(C2CC2)S(=O)(=O)c2c(F)c(F)cc(F)c2F)cc1` [AM1-020, 4-(N-(4-Cyclopentylbenzyl)-2-((N-cyclopropyl-2,3,5,6-tetrafluorophenyl)sulfonamido)acetamido)benzoic acid], the IC50 in test [1] (Table 4) was > 32 µM; in test [2] (Table 4), 13.1 µM.
For `O=C(O)c1ccc(N(Cc2ccc(C3CCC3)cc2)C(=O)CN(C2CC2)S(=O)(=O)c2c(F)c(F)c(F)c(F)c2F)cc1` [DR-4-020, 4-(N-(4-Cyclobutylbenzyl)-2-((N-cyclopropyl-2,3,4,5,6-pentafluorophenyl)sulfonamido)acetamido)benzoic acid], the results for the IC50 in test [1] (Table 3) and in test [2] (Table 3) were 8.6 µM and 4.2 µM, respectively. Besides, the “Fold Difference” value in test [2] worked out at 2.05.
Turning to `O=C(O)c1ccc(N(Cc2ccccc2)C(=O)CN(C2CC2)S(=O)(=O)c2c(F)c(F)c(F)c(F)c2F)cc1` [PSL-3-115], the IC50 in test [1] (Table 3) amounted to 5.2 µM; in test [2] (Table 3) it was 2.3 µM. The “Fold Difference” value in test [2] is 2.26.
For the molecule `O=C(O)c1ccc(N(Cc2ccc(C(F)(F)F)cc2)C(=O)CN(C2CC2)S(=O)(=O)c2c(F)c(F)c(F)c(F)c2F)cc1` [DR-3-186, 4-(2-(N-cyclopropyl-2,3,4,5,6-pentafluorophenylsulfonamido)-N-(4-(trifluoromethyl)benzyl)acetamido)benzoic acid], the IC50 in test [1] was found to be 1.4 µM. In addition, in test [2], the “fold selectivity for AR230^R over AR230 cells” value is given as < 2 fold, the “Fold Difference” value came out at 1.94 and the IC50 was determined as 0.72 µM.
Take `O=C(O)c1ccc(N(Cc2ccc(F)cc2)C(=O)CN(C2CC2)S(=O)(=O)c2c(F)c(F)c(F)c(F)c2F)cc1` [PSL-3-122]: the IC50 came to 6.1 µM in test [1] (Table 3) and 3 µM in test [2] (Table 3). In addition, in test [2], the “Fold Difference” value is reported as 2.03.
In the case of `CC(C)N(CC(=O)N(Cc1ccc(C2CCCCC2)cc1)c1ccc(C(=O)O)cc1)S(=O)(=O)c1c(F)c(F)c(F)c(F)c1F` [PSL-3-40, 4-(N-(4-cyclohexylbenzyl)-2-(2,3,4,5,6-pentafluoro-N-isopropylphenylsulfonamido)acetamido)benzoic acid], the figures for the IC50 in test [1] and in test [2] were 8.7 µM and 14.2 µM, respectively.
Consider `O=C(O)c1ccc(N(Cc2ccc(C3CCCC3)cc2)C(=O)CN(C2CC2)S(=O)(=O)c2ccc(F)nc2)cc1` [AM1-116, 4-(N-(4-Cyclopentylbenzyl)-2-((N-cyclopropyl-6-fluoropyridine)-3-sulfonamido)acetamido)benzoic acid], for which the IC50 in test [1] (Table 4) and in test [2] (Table 4) was > 32 µM each time.
In the case of `O=C(O)c1ccc(N(Cc2ccc(C3CCCC3)cc2)C(=O)CN(C2CC2)S(=O)(=O)c2ccc(F)cn2)cc1` [AM1-117, 4-(N-(4-Cyclopentylbenzyl)-2-((N-cyclopropyl-5-fluoropyridine)-2-sulfonamido)acetamido)benzoic acid], the IC50 in test [1] (Table 4) and in test [2] (Table 4) was > 32 µM each time.
In the case of `O=C(O)c1ccc(N(Cc2ccc(C3CCCC3)cc2)C(=O)CN(C2CC2)S(=O)(=O)c2c(F)c(F)c(Cl)c(F)c2F)cc1` [AM1-112, 4-(N-(4-Cyclopentylbenzyl)-2-((N-cyclopropyl-2,3,5,6-tetrafluoro-4-chlorophenyl)sulfonamido)acetamido)benzoic acid], the IC50 in test [1] (Table 4) is > 32 µM; in test [2] (Table 4) it was 30.7 µM.
With `O=C(O)c1ccc(N(Cc2ccc(C3CC3)cc2)C(=O)CN(C2CC2)S(=O)(=O)c2c(F)c(F)c(F)c(F)c2F)cc1` [PSL-3-132], the half-inhibitory concentration (IC50) was determined as 4.2 µM in test [1] (Table 3) and 2.4 µM in test [2] (Table 3). In addition, the “Fold Difference” value in test [2] worked out at 1.75.
On to `CC1(C)CCC(c2ccc(CN(C(=O)CN(C3CC3)S(=O)(=O)c3c(F)c(F)c(F)c(F)c3F)c3ccc(C(=O)O)cc3)cc2)CC1` [DR-3-119, 4-(2-((N-Cyclopropyl-2,3,4,5,6-pentafluorophenyl)sulfonamido)-N-(4-(4,4-dimethylcyclohexyl)benzyl)acetamido)benzoic acid], for which the IC50 in test [1] (Table 3) came to 5.8 µM; in test [2] (Table 3) it was 3.2 µM. In addition, the “Fold Difference” value in test [2] is recorded as 1.81.
As to `CC(C)(C)c1ccc(CN(C(=O)CN(C2CC2)S(=O)(=O)c2c(F)c(F)c(F)c(F)c2F)c2ccc(C(=O)O)cc2)cc1` [DR-3-162, 4-(N-(4-(tert-butyl)benzyl)-2-((N-cyclopropyl-2,3,4,5,6-pentafluorophenyl)sulfonamido)acetamido)benzoic acid], the IC50 in test [1] (Table 3) worked out at 3.2 µM; in test [2] (Table 3), 0.8 µM. Further, the “fold selectivity for AR230^R over AR230 cells” value in test [2] was 4 fold. The fold more potent in test [2] (AR230^R cells) worked out at 3 fold. Also, in test [2], the “Fold Difference” value is listed as 4.

Broadly, the IC50 is the concentration that inhibits the measured activity by half.

The values above are taken from PMC4963206 (ChemMedChem, 2016).
